Values quoted from earlier work, collected in patent US11590090B2, “Acetaminophen formulation with protection against toxic effects of overdose” (Anzen Pharmaceuticals, LLC, priority 2019, dated 2023).

Test system: cytochrome P450 mixed-function oxygenase system
Settings: upon ingestion

## CC(=O)Nc1ccc(O)cc1 [acetaminophen]
  Fraction metabolized in the liver by cytochrome P450 to NAPQI: about 5%
